Experiments:
Type in all cases: in vivo
[1] = tested on: barnyardgrass (Echinochloa crus-galli); experiment: Test G Pre-Emergence Protocol; conditions: Echinochloa crus-galli, pre-emergence, 312 h, evaluated after 13 days; for pest or weed control at 15.625 g/ha: 15.625 g ai/ha, read-out: Barnyard grass damage rating (100=total damage to plant; 0=no damage to plant); for pest or weed control at 62.5 g/ha: 62.5 g ai/ha, 100=total damage to plant, 0=no damage to plant, read-out: plant damage rating, Barnyardgrass; for pest or weed control at 250 g/ha: 250 g ai/ha, read-out: Barnyardgrass damage rating (100=total damage to plant; 0=no damage to plant)
Procedure, shortened: (§1)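 Seeds were sown in standard soil and kept one day in a glasshouse (24/16° C day/night, 14 h light, 65% humidity), then sprayed with compound in acetone/water (50:50) containing 0.5% Tween 20 at 15.625, 62.5 or 250 g/ha. Damage was scored after 13 days (0 = none, 100 = total).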

[2] = tested on: ivy-leaved morning glory (Ipomoea hederacea); experiment: Test G Pre-Emergence Protocol; conditions: Ipomoea, pre-emergence, 312 h, evaluated after 13 days; for pest or weed control at 15.625 g/ha: 15.625 g ai/ha, read-out: Morning-glory, Ivy-leaved damage rating (100=total damage to plant; 0=no damage to plant); for pest or weed control at 62.5 g/ha: 62.5 g ai/ha, 100=total damage to plant, 0=no damage to plant, read-out: plant damage rating, Morningglory, Ivy-leaved; for pest or weed control at 250 g/ha: 250 g ai/ha, read-out: Morningglory, Ivy-leaved damage rating (100=total damage to plant; 0=no damage to plant)
Procedure, shortened: as §1

[3] = tested on: velvetleaf (Abutilon theophrasti); experiment: Test G Pre-Emergence Protocol; conditions: Abutilon theophrasti, pre-emergence, 312 h, evaluated after 13 days; for pest or weed control at 15.625 g/ha: 15.625 g ai/ha; for pest or weed control at 15.625 g/ha / pest or weed control at 250 g/ha: read-out: Velvetleaf damage rating (100=total damage to plant; 0=no damage to plant); for pest or weed control at 62.5 g/ha: 62.5 g ai/ha, 100=total damage to plant, 0=no damage to plant, read-out: plant damage rating, Velvetleaf; for pest or weed control at 250 g/ha: 250 g ai/ha
Procedure, shortened: as §1

[4] = tested on: redroot pigweed (Amaranthus retroflexus); experiment: Test G Pre-Emergence Protocol; conditions: Amaranthus retroflexus, pre-emergence, 312 h, evaluated after 13 days; for pest or weed control at 15.625 g/ha: 15.625 g ai/ha; for pest or weed control at 15.625 g/ha / pest or weed control at 250 g/ha: read-out: Pigweed, Redroot damage rating (100=total damage to plant; 0=no damage to plant); for pest or weed control at 62.5 g/ha: 62.5 g ai/ha, 100=total damage to plant, 0=no damage to plant, read-out: plant damage rating, Pigweed, Redroot; for pest or weed control at 250 g/ha: 250 g ai/ha
Procedure, shortened: as §1

corn (Zea mays) [5] = experiment: Test G Pre-Emergence Protocol; conditions: Zea mays, pre-emergence, 312 h, evaluated after 13 days; for plant injury at 15.625 g/ha: 15.625 g ai/ha; for plant injury at 15.625 g/ha / plant injury at 250 g/ha: read-out: Corn damage rating (100=total damage to plant; 0=no damage to plant); for plant injury at 62.5 g/ha: 62.5 g ai/ha, 100=total damage to plant, 0=no damage to plant, read-out: plant damage rating, Corn; for plant injury at 250 g/ha: 250 g ai/ha
Procedure, shortened: as §1

[6] = tested on: giant foxtail (Setaria faberi); experiment: Test G Pre-Emergence Protocol; conditions: Setaria faberi, pre-emergence, 312 h, evaluated after 13 days; for pest or weed control at 15.625 g/ha: 15.625 g ai/ha; for pest or weed control at 15.625 g/ha / pest or weed control at 250 g/ha: read-out: Foxtail, Giant damage rating (100=total damage to plant; 0=no damage to plant); for pest or weed control at 62.5 g/ha: 62.5 g ai/ha, 100=total damage to plant, 0=no damage to plant, read-out: plant damage rating, Foxtail, Giant; for pest or weed control at 250 g/ha: 250 g ai/ha
Procedure, shortened: as §1

[7] = tested on: barnyardgrass (Echinochloa crus-galli); experiment: Test G Post-Emergence Protocol; conditions: Echinochloa crus-galli, post-emergence, 312 h; for pest or weed control at 15.625 g/ha: 15.625 g ai/ha, evaluated after 13 days (100=total damage to plant; 0=no damage to plant), read-out: Barnyardgrass damage rating; for pest or weed control at 62.5 g/ha: 62.5 g ai/ha, read-out: Barnyardgrass damage rating (100=total damage to plant; 0=no damage to plant); for pest or weed control at 62.5 g/ha / pest or weed control at 250 g/ha: evaluated after 13 days; for pest or weed control at 250 g/ha: 250 g ai/ha, read-out: damage to plant, Barnyardgrass (100=total damage to plant; 0=no damage to plant)
Procedure, shortened: (§2)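 Post-emergence herbicidal damage, scored visually 0–100 at 13 days. Application at 15.625, 62.5 or 250 g/ha onto 8-day-old plants grown under glasshouse control.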

[8] = tested on: ivy-leaved morning glory (Ipomoea hederacea); experiment: Test G Post-Emergence Protocol; conditions: Ipomoea, post-emergence, 312 h; for pest or weed control at 15.625 g/ha: 15.625 g ai/ha, evaluated after 13 days (100=total damage to plant; 0=no damage to plant), read-out: Morningglory, Ivy-leaved damage rating; for pest or weed control at 62.5 g/ha: 62.5 g ai/ha, read-out: Morningglory, Ivy-leaved damage rating (100=total damage to plant; 0=no damage to plant); for pest or weed control at 62.5 g/ha / pest or weed control at 250 g/ha: evaluated after 13 days; for pest or weed control at 250 g/ha: 250 g ai/ha, read-out: damage to plant, Morningglory, Ivy-leaved (100=total damage to plant; 0=no damage to plant)
Procedure, shortened: as §2

[9] = tested on: velvetleaf (Abutilon theophrasti); experiment: Test G Post-Emergence Protocol; conditions: Abutilon theophrasti, post-emergence, 312 h; for pest or weed control at 15.625 g/ha: 15.625 g ai/ha, evaluated after 13 days (100=total damage to plant; 0=no damage to plant), read-out: Velvetleaf damage rating; for pest or weed control at 62.5 g/ha: 62.5 g ai/ha, read-out: Velvetleaf damage rating (100=total damage to plant; 0=no damage to plant); for pest or weed control at 62.5 g/ha / pest or weed control at 250 g/ha: evaluated after 13 days; for pest or weed control at 250 g/ha: 250 g ai/ha, read-out: damage to plant, Velvetleaf (100=total damage to plant; 0=no damage to plant)
Procedure, shortened: as §2

[10] = tested on: redroot pigweed (Amaranthus retroflexus); experiment: Test G Post-Emergence Protocol; conditions: Amaranthus retroflexus, post-emergence, 312 h; for pest or weed control at 15.625 g/ha: 15.625 g ai/ha, evaluated after 13 days (100=total damage to plant; 0=no damage to plant), read-out: Pigweed, Redroot damage rating; for pest or weed control at 62.5 g/ha: 62.5 g ai/ha, read-out: Pigweed, Redroot damage rating (100=total damage to plant; 0=no damage to plant); for pest or weed control at 62.5 g/ha / pest or weed control at 250 g/ha: evaluated after 13 days; for pest or weed control at 250 g/ha: 250 g ai/ha, read-out: damage to plant, Pigweed, Redroot (100=total damage to plant; 0=no damage to plant)
Procedure, shortened: as §2

corn (Zea mays) [11] = experiment: Test G Post-Emergence Protocol; conditions: Zea mays, post-emergence, 312 h; for plant injury at 15.625 g/ha: 15.625 g ai/ha, evaluated after 13 days (100=total damage to plant; 0=no damage to plant), read-out: Corn damage rating; for plant injury at 62.5 g/ha: 62.5 g ai/ha, read-out: Corn damage rating (100=total damage to plant; 0=no damage to plant); for plant injury at 62.5 g/ha / plant injury at 250 g/ha: evaluated after 13 days; for plant injury at 250 g/ha: 250 g ai/ha, read-out: damage to plant, Corn (100=total damage to plant; 0=no damage to plant)
Procedure, shortened: as §2

[12] = tested on: giant foxtail (Setaria faberi); experiment: Test G Post-Emergence Protocol; conditions: Setaria faberi, post-emergence, 312 h; for pest or weed control at 15.625 g/ha: 15.625 g ai/ha, evaluated after 13 days (100=total damage to plant; 0=no damage to plant), read-out: Foxtail, Giant damage rating; for pest or weed control at 62.5 g/ha: 62.5 g ai/ha, read-out: Foxtail, Giant damage rating (100=total damage to plant; 0=no damage to plant); for pest or weed control at 62.5 g/ha / pest or weed control at 250 g/ha: evaluated after 13 days; for pest or weed control at 250 g/ha: 250 g ai/ha, read-out: damage to plant, Foxtail, Giant (100=total damage to plant; 0=no damage to plant)
Procedure, shortened: as §2

Row | Compound | pest or weed control at 15.625 g/ha [1] | pest or weed control at 62.5 g/ha [1] | pest or weed control at 250 g/ha [1] | pest or weed control at 15.625 g/ha [2] | pest or weed control at 62.5 g/ha [2] | pest or weed control at 250 g/ha [2] | pest or weed control at 15.625 g/ha [3] | pest or weed control at 62.5 g/ha [3] | pest or weed control at 250 g/ha [3] | pest or weed control at 15.625 g/ha [4] | pest or weed control at 62.5 g/ha [4] | pest or weed control at 250 g/ha [4] | plant injury at 15.625 g/ha (corn (Zea mays) [5]) | plant injury at 62.5 g/ha (corn (Zea mays) [5]) | plant injury at 250 g/ha (corn (Zea mays) [5]) | pest or weed control at 15.625 g/ha [6] | pest or weed control at 62.5 g/ha [6] | pest or weed control at 250 g/ha [6] | pest or weed control at 15.625 g/ha [7] | pest or weed control at 62.5 g/ha [7] | also measured
1 | Cc1ccc(NC(=O)[C@H]2C(=O)N(C)C[C@@H]2c2ccc(C(F)(F)F)cc2)c(C)c1C (racemic) [Compound 1448] | 0% | 0% | 0% | 0% | 0% | 0% | 0% | 0% | 0% | 0% | 0% | 0% | 0% | 0% | 0% | 0% | 20% | 60% | 0% | 0% | pest or weed control at 250 g/ha [7]: 0%; pest or weed control at 15.625 g/ha [8]: 0%; pest or weed control at 62.5 g/ha [8]: 0%; pest or weed control at 250 g/ha [8]: 0%; pest or weed control at 15.625 g/ha [9]: 0%; pest or weed control at 62.5 g/ha [9]: 0%; pest or weed control at 250 g/ha [9]: 0%; pest or weed control at 15.625 g/ha [10]: 0%; pest or weed control at 62.5 g/ha [10]: 0%; pest or weed control at 250 g/ha [10]: 30%; plant injury at 15.625 g/ha (corn (Zea mays) [11]): 0%; plant injury at 62.5 g/ha (corn (Zea mays) [11]): 0%; plant injury at 250 g/ha (corn (Zea mays) [11]): 10%; pest or weed control at 15.625 g/ha [12]: 0%; pest or weed control at 62.5 g/ha [12]: 0%; pest or weed control at 250 g/ha [12]: 0%
2 | CN1C[C@H](c2ccc(C(F)(F)F)cc2)[C@@H](C(=O)Nc2ncccc2C#N)C1=O (racemic) [Compound 1433] | 0% | 0% | 0% | 0% | 0% | 0% | 0% | 0% | 0% | 0% | 0% | 0% | 0% | 0% | 0% | 0% | 0% | 0% | 0% | 0% | pest or weed control at 250 g/ha [7]: 0%; pest or weed control at 15.625 g/ha [8]: 0%; pest or weed control at 62.5 g/ha [8]: 0%; pest or weed control at 250 g/ha [8]: 0%; pest or weed control at 15.625 g/ha [9]: 0%; pest or weed control at 62.5 g/ha [9]: 0%; pest or weed control at 250 g/ha [9]: 0%; pest or weed control at 15.625 g/ha [10]: 0%; pest or weed control at 62.5 g/ha [10]: 0%; pest or weed control at 250 g/ha [10]: 0%; plant injury at 15.625 g/ha (corn (Zea mays) [11]): 0%; plant injury at 62.5 g/ha (corn (Zea mays) [11]): 0%; plant injury at 250 g/ha (corn (Zea mays) [11]): 0%; pest or weed control at 15.625 g/ha [12]: 0%; pest or weed control at 62.5 g/ha [12]: 0%; pest or weed control at 250 g/ha [12]: 0%
3 | CN1C[C@H](c2ccc(C(C)(C)C#N)cc2)[C@@H](C(=O)Nc2ccccc2F)C1=O (racemic) [Compound 1408] | 0% | 0% | 20% | 0% | 0% | 0% | 0% | 0% | 0% | 0% | 0% | 10% | 0% | 0% | 10% | 0% | 20% | 70% | 0% | 0% | pest or weed control at 250 g/ha [7]: 40%; pest or weed control at 15.625 g/ha [8]: 0%; pest or weed control at 62.5 g/ha [8]: 0%; pest or weed control at 250 g/ha [8]: 20%; pest or weed control at 15.625 g/ha [9]: 0%; pest or weed control at 62.5 g/ha [9]: 0%; pest or weed control at 250 g/ha [9]: 10%; pest or weed control at 15.625 g/ha [10]: 0%; pest or weed control at 62.5 g/ha [10]: 0%; pest or weed control at 250 g/ha [10]: 0%; plant injury at 15.625 g/ha (corn (Zea mays) [11]): 0%; plant injury at 62.5 g/ha (corn (Zea mays) [11]): 0%; plant injury at 250 g/ha (corn (Zea mays) [11]): 20%; pest or weed control at 15.625 g/ha [12]: 0%; pest or weed control at 62.5 g/ha [12]: 0%; pest or weed control at 250 g/ha [12]: 60%

Reference: US12077503B2, “Substituted cyclic amides and their use as herbicides” (FMC CORPORATION, priority 2015, dated 2024)
